Measurements from article PMC9838390, “Discovery and biosynthesis of karnamicins as angiotensin converting enzyme inhibitors” (Nature Communications, 2023).
Values joined by “and” are separate entries in the source; they are usually repeats but may differ in a detail not shown here. Equal values may be shown once.

Columns and labels:
Format in all cases: biochemical, L. rhizosphaerae NEAU-A2
KnmB2 [1] = experiment: Hydrogen peroxide formation assay of KnmB2 and variants
Procedure: (§1) Hydrogen peroxide formation assay and NADPH oxidation
(§2) The hydrogen peroxide formed from KnmB1, KnmB2 and their variants were measured using the Hydrogen Peroxide Assay Kit (Beyotime Industrial Co. Ltd, Shanghai, China)4-5. 5–100 µL of enzyme reaction mixture was added to 100 µL of working reagent (S0038-1). The mixture was incubated for 30 min at 25 °C, at which time the absorbance at 560 nm was measured by NanoDrop 2000c (Fisher Scientific). […]
(§3) Spectral data for new compounds […]
Supplementary Figure 131. H2O2 generation and NADPH oxidation for KnmB2, KnmB1 and their variants. (a) Hydrogen peroxide formation of KnmB2 and variants. […]
(1 picture or pasted object on this page, not shown here) […]
(§4) H2O2 generation for KnmB2 and variants in the presence 24 or 32. Reaction conditions (h-j) for KnmB2 and their variants: 50 mM Tris-HCl buffer (pH 7.5), 0.15 mM NADPH, 2 μM KnmB2 or variants, or 0.1 mM substrate 24/32. Values are the means ± SD of n = 3 independent experiments, except for KnmB2+24 (T = 40 min), KnmB2-N219D+24 (T = 4 min), KnmB2-Y215F+24 (T= 1 min and 3 min) in i and j, and KnmB2+32 (T= 8 min) in j (n = 2). Source data are provided as a Source Data file. […]

KnmB1 = experiment: NADPH oxidation of KnmB1 and variants (340 nm); conditions: KnmB1 + compound
Procedure: Hydrogen peroxide formation assay and NADPH oxidation […]
(§5) NADPH detection was carried out in the cuvette by NanoDrop 2000c (Fisher Scientific). NADPH signal at 340 nm was monitored in time using 6220 M–1 cm–1 as […]
as §3
Reaction conditions: 50 mM Tris-HCl buffer (pH 7.5), 0.15 mM NADPH, and 2 μM KnmB1 or KnmB2. (e) NADPH oxidation of KnmB1 and variants. (f) NADPH oxidation of KnmB1 in the presence 24/32/36. (g) NADPH oxidation of KnmB1 and variants in the presence 24. Reaction conditions (e-g) for KnmB1 and their variants: 50 mM Tris-HCl buffer (pH 7.5), 0.15 mM NADPH, and 6 μM KnmB1 or variants, or 0.1 mM substrate 24/32/36. […]
2 μM KnmB2 or variants, or 0.1 mM substrate 24/32. […]
Source data are provided as a Source Data file. […]

KnmB2 [2] = experiment: NADPH oxidation of KnmB2 and variants (340 nm)
Procedure: as §1
as §2, with “Scientific). The level of H2O2 was calculated according to a standard concentration curve from standard” for “Scientific).”
as §5, §3
Reaction conditions: 50 mM Tris-HCl buffer (pH 7.5),
0.15 mM NADPH, and 2 μM KnmB1 or KnmB2. […]
as §4, with “μM KnmB1 or variants, or 0.1 mM substrate 24/32/36. (h) NADPH oxidation of KnmB2 and variants. (i) NADPH oxidation of KnmB2 and variants in the presence 24 or 32. (j) H2O2” for “H2O2”

For `COc1cc(C(N)=O)nc(-c2csc(CCCCC(C)C)n2)c1` [Compound 32], the “hydrogen peroxide formation of KnmB2 (absorbance UV λ=560 nm), average value” (KnmB2 [1]; Fig. S131a, 1 mM NADPH, 16 μM KnmB2, 0.1 mM compound, 30 °C, 3 h, average of 3) was 0.3257, the “H2O2 generation, average value” (KnmB2 [1]; KnmB2+32, Time 0) was 0.0000 µM and the “H2O2 generation, average value” (KnmB2 [1]; KnmB2+32, Time 1) was 27.0071 µM. For the same molecule, the “H2O2 generation, average value” (KnmB2 [1]; KnmB2+32, Time 2) was 45.8172 µM, the “H2O2 generation, average value” (KnmB2 [1]; KnmB2+32, Time 3) was 50.8645 µM and the “H2O2 generation, average value” (KnmB2 [1]; KnmB2+32, Time 4) was 59.9799 µM. For the same molecule, the “H2O2 generation, average value” (KnmB2 [1]; KnmB2+32, Time 5) was 63.9929 µM, the “H2O2 generation, average value” (KnmB2 [1]; KnmB2+32, Time 8) was 70.1572 µM and the “H2O2 generation, average value” (KnmB2 [1]; KnmB2+32, Time 10) was 68.2817 µM. For the same molecule, the “H2O2 generation, average value” (KnmB2 [1]; KnmB2+32, Time 15) was 68.3920 µM, the “H2O2 generation, average value” (KnmB2 [1]; KnmB2+32, Time 20) was 65.9649 µM and the “H2O2 generation, average value” (KnmB2 [1]; KnmB2+32, Time 30) was 69.8125 µM. The “H2O2 generation, average value” (KnmB2 [1]; KnmB2+32, Time 60) was 64.9169 µM, the “NADPH oxidation of KnmB1 in the presence of compound (replicates 1, 2, 3)” value (“NADPH oxidation of KnmB1 … (replicates 1, 2, 3)” below) (KnmB1; Time 0) was 0.0000 µM and the “NADPH oxidation of KnmB1 in the presence of compound, average value” (“NADPH oxidation of KnmB1 … average value” for short) (KnmB1; Time 0) was 0.0000 µM. The “NADPH oxidation of KnmB1 … (replicates 1, 2, 3)” value (KnmB1; Time 1) was 1.5273 µM and 2.1061 µM and 2.0418 µM, the “NADPH oxidation of KnmB1 … average value” (KnmB1; Time 1) was 1.8918 µM and the “NADPH oxidation of KnmB1 … (replicates 1, 2, 3)” value (KnmB1; Time 2) was 1.8328 µM and 3.1029 µM and 1.2701 µM. The “NADPH oxidation of KnmB1 … average value” (KnmB1; Time 2) was 2.0686 µM, the “NADPH oxidation of KnmB1 … (replicates 1, 2, 3)” value (KnmB1; Time 3) was 2.5241 µM and 3.7621 µM and 2.2026 µM and the “NADPH oxidation of KnmB1 … average value” (KnmB1; Time 3) was 2.8296 µM. For the same molecule, the “NADPH oxidation of KnmB1 … (replicates 1, 2, 3)” value (KnmB1; Time 4) was 3.7781 µM and 5.3698 µM and 2.4759 µM, the “NADPH oxidation of KnmB1 … average value” (KnmB1; Time 4) was 3.8746 µM and the “NADPH oxidation of KnmB1 … (replicates 1, 2, 3)” value (KnmB1; Time 5) was 4.0032 µM and 5.5627 µM and 2.3955 µM. The “NADPH oxidation of KnmB1 … average value” (KnmB1; Time 5) was 3.9871 µM, the “NADPH oxidation of KnmB1 … (replicates 1, 2, 3)” value (KnmB1; Time 8) was 4.4212 µM and 7.7974 µM and 3.6978 µM and the “NADPH oxidation of KnmB1 … average value” (KnmB1; Time 8) was 5.3055 µM. For the same molecule, the “NADPH oxidation of KnmB1 … (replicates 1, 2, 3)” value (KnmB1; Time 10) was 5.8360 µM and 8.6174 µM and 5.4019 µM, the “NADPH oxidation of KnmB1 … average value” (KnmB1; Time 10) was 6.6184 µM and the “NADPH oxidation of KnmB1 … (replicates 1, 2, 3)” value (KnmB1; Time 15) was 7.9100 µM and 11.8971 µM and 10.3055 µM. The “NADPH oxidation of KnmB1 … average value” (KnmB1; Time 15) was 10.0375 µM, the “NADPH oxidation of KnmB1 … (replicates 1, 2, 3)” value (KnmB1; Time 20) was 9.0836 µM and 14.3891 µM and 16.4148 µM and the “NADPH oxidation of KnmB1 … average value” (KnmB1; Time 20) was 13.2958 µM. For the same molecule, the “NADPH oxidation of KnmB1 … (replicates 1, 2, 3)” value (KnmB1; Time 30) was 13.7942 µM and 22.5402 µM and 24.0193 µM, the “NADPH oxidation of KnmB1 … average value” (KnmB1; Time 30) was 20.1179 µM and the “NADPH oxidation of KnmB1 … (replicates 1, 2, 3)” value (KnmB1; Time 40) was 17.5724 µM and 28.7299 µM and 26.9936 µM. For the same molecule, the “NADPH oxidation of KnmB1 … average value” (KnmB1; Time 40) was 24.4319 µM, the “NADPH oxidation of KnmB1 … (replicates 1, 2, 3)” value (KnmB1; Time 60) was 24.1801 µM and 36.1576 µM and 36.4791 µM and the “NADPH oxidation of KnmB1 … average value” (KnmB1; Time 60) was 32.2722 µM. The “stimulation of the reaction of KnmB2 with NADPH” value (KnmB2 [2]; 0.15 mM NADPH, 2 μM KnmB2, 0.1 mM compound (Fig. S131i, j)) was “could dramatically stimulate the reaction of KnmB2 with NADPH”, the “NADPH oxidation, average value” (KnmB2 [2]; KnmB2+32, Time 0) was 0.0000 µM and the “NADPH oxidation, average value” (KnmB2 [2]; KnmB2+32, Time 1) was 36.1736 µM. The “NADPH oxidation, average value” (KnmB2 [2]; KnmB2+32, Time 2) was 67.6313 µM, the “NADPH oxidation, average value” (KnmB2 [2]; KnmB2+32, Time 3) was 89.9250 µM and the “NADPH oxidation, average value” (KnmB2 [2]; KnmB2+32, Time 4) was 104.0193 µM. For the same molecule, the “NADPH oxidation, average value” (KnmB2 [2]; KnmB2+32, Time 5) was 113.9871 µM, the “NADPH oxidation, average value” (KnmB2 [2]; KnmB2+32, Time 8) was 126.0986 µM and the “NADPH oxidation, average value” (KnmB2 [2]; KnmB2+32, Time 10) was 129.3140 µM. For the same molecule, the “NADPH oxidation, average value” (KnmB2 [2]; KnmB2+32, Time 15) was 133.2797 µM, the “NADPH oxidation, average value” (KnmB2 [2]; KnmB2+32, Time 20) was 134.8875 µM and the “NADPH oxidation, average value” (KnmB2 [2]; KnmB2+32, Time 30) was 135.6377 µM. For the same molecule, the “NADPH oxidation, average value” (KnmB2 [2]; KnmB2+32, Time 60) was 137.7278 µM.
